The values that follow come from patent publication US20110060000A1, “ACRIDINE ANALOGS IN THE TREATMENT OF GLIOMAS” (priority 2009, published 2011).

One assay relates to GRP78 promoter. The assay is described as follows: GRP78-luc reporter assay in stably transfected U87-MG clone A5. Format: cell-based, human. The note with it: for GRP78 promoter driven luciferase (GRP78-luc) expression: result in words. On the procedure: The promoter region contains the sequence of the GRP78 promoter from −139 to +7. In this part of the promoter there are three ER stress responsive elements and the TATA box to which is linked in frame the firefly luciferase sequence.
Compounds were plated in half area 96 well plates at the final concentration of 2 μM in 5 μl of media. Cells were added in 45 μl afterwards at the density of 5000/well. Plates were read after 16 h in an Envision high efficiency plate reader. Results are represented as a plate layout in which different shadings indicate the different rows and the number indicate the different lines. As a standard negative and positive controls were located in the outer columns.
A construct coding a large part of the human GRP78 promoter, attached to the reporter gene firefly luciferase was used (see FIG. 16 for a schematic) (Yoshida et al., 1998).
The promoter region contains the sequence of the GRP78 promoter from −139 to +7. In this part of the promoter there are three ER stress responsive elements and the TATA box to which is linked in frame the firefly luciferase sequence (FIG. 16)(Yoshida et al., 1998). The construct, which was cloned in an expression vector, was transfected into E. Coli, amplified, purified and checked it by enzymatic digestion. Thereafter, C6 and U87-MG were transiently transfected with the plasmid. After 24 hours the cells were challenged with THAP and TUN for 24 hours. Although, in transient transfection only a small part of the cell population expresses the transduced gene, a significant induction by THAP and TUN was detected over 24 hours. Armed with these encouraging data human glioma cells U87-MG were transfected with both the above described construct and a construct carrying resistance to blasticidin. The sensitivity of these cells to the antibiotic has previously been assessed. 24 hours after the transfection the antibiotic at its 75% inhibitory concentration was added. The cells were given time to proliferate. Two pools called P2 and P5 were selected and luciferase expression was assessed. […] Clones from these two pools were isolated. Luciferase expression in the clones was characterized and a clone called A5, in which baseline expression of the construct was reasonably low and induction with two positive controls was large and consistent, was selected. This clone, several back up clones, and the pools were amplified and frozen in sufficient amounts to guarantee continuity in case needed. Next, the effect of the incubation time on luciferase induction was assessed. Since this assay can be affected by false negative due to toxicity of hit compounds, the incubation times were kept as short as possible. Therefore, several incubation times were tested, including 8, 16 and 24 h. The goal was not to incubate longer than 24 hours because toxicity starts to develop at that time point. […] At this time point the induction is about 6-7 fold. Previously, using a different assay, a half a million compound library was screened very easily using 2.5 thousands cells per well in 1536 plates. […] With this cell number the dynamic range is large and the fold of induction of 6-7 is maintained.
It is common practice in the field of high throughput screening to assess the so called z number of the assay. This statistical parameter indicates the suitability of a given assay for high throughput screening. The z-value in a word describes the likelihood of a single point hit not to be false positive. The z value is a number lower than or equal to one. Values above 0.5 indicate a robust assay. Values below 0.5 but above 0 indicate an assay that probably needs to be run in duplicate. Negative values indicate assays whose predictability is very low. Z values are usually determined in a high density format plate usually a 96 well plate in manual conditions or a 384-1536 plate format in automated liquid handling environment. Z value determination has been performed using half area 96 well plates in manual mode. […]
Background: Reporter assays use an easily measured gene product as a stand-in for the process of interest.

In the next assay the test system is glioma cells. The assay is described as follows: Gliotoxicity, cell line not stated. It is filed as cell-based. As to conditions: cell line not stated. The source says:
Spiperone is a selective D2 dopamine receptor antagonist. This drug is used in the treatment of schizophrenia and other hallucinatory states. […] In an effort to develop Structure-Activity Relationships around the chosen compounds, a search of commercially available compounds that are either close structural analogs of these lead compounds (for example, acridine and quinoline analogs of quinacrine) or are related to these in terms of their pharmacological activity (dopamine receptor antagonists related to spiperone) was performed.

The subject of assay [1] is C6. The assay is described as follows: [Ca2+]i measurement in C6. It is filed as cell-based, rat. The text has this:
(Statistical analysis it is shown in the inset. Values at the peak of the response have been analyzed using ANOVA followed by T-test, ** indicate P<0.01.).
Ca^2+ mobilization from ER was caused using an agonist acting via inositol trisphosphate elevation, mimicking physiological responses. In these conditions the dynamics of Ca^2+ transients were observe in these two cell lines. It appears evident that the plateau phase in C6 is consistently larger than in astrocytes.
Panel A: Challenge of astrocytes with ATP show the unchanged typical spike and plateau response. Panel B: In C6 an oscillatory pattern is readily detectable in response to treatment with TUN.
Tools and protocols have been developed to cleanly observe capacitative Ca^2+ entry (CCE), the phenomenon that allows the replenishment of intracellular Ca^2+ (ICS) stores and make quantitative and qualitative assessments. In particular, in astrocytes, capacitative Ca^2+ entry happens in absence of cytoplasmic Ca^2+ concentration ([Ca^2+]i) elevation (Grimaldi; 2006)(FIG. 1). […] The study was designed to investigate if there was a difference between astrocytes and glial cancer cells in this distinctive homeostatic pattern. The findings presented in this study, indicate that there are striking differences between glial cells and their cancer counterpart. The model utilizes rat cells but the observations extend and apply to human glioma cells as well. When the responses of normal astrocytes and C6 cells to thapsigargin (THAP), an agent able to block SERCA, therefore causing the release of Ca^2+ from the ER, were compared it was evident that C6 was more sensitive to the THAP (FIG. 2). However, the difference can be ascribed to one of many possibilities. […]
This phase is dependent on the balance of Ca^2+ influx triggered by store depletion and the reuptake in the ER due to SERCA activity. […] To investigate the role of influx triggered by ICS depletion, CCE was analyzed following THAP-induced depletion of ICS. […]

The next assay deals with PLA2. The note with it: coinjection with PLA2; cited from earlier work.
The subject of a further assay is phospholipase A2 (PLA2). As to conditions: cited from earlier work.
Assay [2] deals with C6. The assay is described as follows: TUNEL labeling in C6. Format: cell-based, rat. As to conditions: C6, 24 hours. The method, then: C6 were plated on glass coverslips. Cells were fixed and stained accordingly to manufacturer instructions. Propidium staining of the nuclei was replaced by Hoechst included in the mounting media. Several images were acquired with a high resolution camera on a microscope equipped with a 10× long working distance dry lens and analyzed with powerful commercial software. Results were expressed in the graph as green labeled pixel counts. The images from the top to the bottom are respectively from N.T., DMSO, Thap 20 nM, Thap 200 nM, STS100 nM. The blue images reflect nuclear staining while the images on the right represent BRDU staining.
Thereafter, cells were harvested and protein extracted. Procaspase 12 band at 65 kDa was identified. In some of the treatments, the active product at 45 kDa was also detected. […] Conversely, in C6, higher GRP78 levels and the cell environment reflect significant caspase activation. […] Caspase activation in ERSR conditions was also confirmed with a TUNEL based apoptosis detection system in C6. […] High resolution images of the experiments were acquired and image morphometric analysis was performed to determine quantitative parameters of the staining as previously described (Pascale et al., 2004, “Translocation of protein kinase C-betaII in astrocytes requires organized actin cytoskeleton and is not accompanied by synchronous RACK1 relocation.” Glia 46(2): 169-82). […]

Structures are written as SMILES.

In the case of `Cl.Nc1c2ccccc2nc2ccccc12.O` [9-aminoacridine, hydrate, hydrochloride], the “GRP78 promoter driven luciferase (GRP78-luc) expression” value with GRP78 promoter (hydrate, hydrochloride) was “causes increased expression of the GRP78-luc reporter gene”. Besides, in the assay on glioma cells, the gliotoxicity entry was “causes gliotoxicity”.
`Nc1ncnc2c1ncn2[C@@H]1O[C@H](COP(=O)(O)OP(=O)(O)OP(=O)(O)O)[C@@H](O)[C@H]1O` [ATP]: the “[Ca2+]i response of C6 to ATP compared with astrocytes” value in the assay with C6 [1] was “increased elevation of [Ca^2+]i”.
Take `CCN(CC)CCCC(C)Nc1c2cc(OC)ccc2nc2cc(Cl)c(N)cc12` (centres unmarked) [OSSL-053454, 3-chloro-N^9-(5-(diethlyamino)pentan-2-yl)-7-methoxy acridine-2,9-diamine]: the “GRP78 promoter driven luciferase (GRP78-luc) expression” value in the assay on GRP78 promoter was “causes an increase of the GRP78-luc reporter gene similar to the increase caused by quinacrine”; in the assay with GRP78 promoter (listed as OSSL 53454), “causes an increase of the GRP78-luc reporter gene as quinacrine”. Further, the gliotoxicity result in the assay with glioma cells is recorded as “causes gliotoxicity similar to that caused by quinacrine”; in the assay on glioma cells (listed as OSSL 53454), “causes gliotoxicity”.
In the case of `CCN(CC)CCCC(C)Nc1c2ccc(Cl)cc2nc2ccc(OC)cc12.Cl.Cl` (centres unmarked) [quinacrine hydrochloride, 6-chloro-9-((4-(diethylamino)-1-methylbutyl)amino)-2-methoxyacridine dihydrochloride], the “reduction of the inflammogenic potency of PLA2” value in the assay on PLA2 is listed as 64%. Further, in the assay on phospholipase A2 (PLA2), the “PLA2 inhibition in platelets” value is listed as “phospholipase A2 (PLA2) inhibitor”.
Regarding `O=C(CCCN1CCC2(CC1)C(=O)NCN2c1ccccc1)c1ccc(F)cc1` [spiperone], the “hit in Prestwick library screening (value above average of negative controls + 3 SD)” value in the assay on GRP78 promoter (2 μM, 5000 cells/well, read after 16 h) was “potentially attractive lead compounds”.
As for `CN[C@@H]1C[C@H]2O[C@@](C)([C@@H]1OC)n1c3ccccc3c3c4c(c5c6ccccc6n2c5c31)C(=O)NC4` [staurosporin], the TUNEL labeling entry with C6 [2] is given as “clear increase of TUNEL labeling”.
